The numbers were not newly measured in patent publication US12387828B2, “System and method for ranking options for medical treatments” (PRXCISION LLC, priority 2015, dated 2025), which cites them from elsewhere.

Each structure is given as a SMILES string.

Where [1] appears, read: model value, multiplied by (WT/70).

`C[C@@H](O)[C@H]1C(=O)N2C(C(=O)O)=C(S[C@@H]3CN[C@H](C(=O)N(C)C)C3)[C@H](C)[C@H]12` [meropenem]: for the setting “equation in CLcr (mL/min) and WT (kg)”, the “CLt (total clearance)” value was “(10.2+2.08×CLcr)×(WT/70)×0.06”. Besides, under setting [1], the “CLd (distributional clearance)” value was 18.6 L/h, the “Vc (volume of the central compartment)” value is 10.8 L and the “Vp (peripheral compartment volume)” value is 12.6 L.
